According to US10265383B2, “Treatment of radiation injury using ghrelin” (priority 2014, dated 2019):
Where no end group is shown, it is not given here. The star is where a group is joined. Octanoyl = CCCCCCCC(=O)*

What was measured:
rat ileum = assay: Gut permeability, ex-vivo isolated everted ileal sac (FD4 clearance); assay type: in vivo; settings: Day 7 after 10 Gy WBI, 20 nmol/rat for 6 days from 24 h
Protocol: (§1) Animal model of whole body irradiation. Rats were exposed to whole body irradiation (WBI) of 10 Gray (Gy) using a Gammacell® 1000 Irradiator (Atomic Energy of Canada Ltd) [radiation source: Cesium-137 (^137Cs)] delivered at a dose rate of about 2.5 GY/min. The animals were sedated with intra-peritoneal pentobarbital (40 mg/kg BW) prior to irradiation. During radiation, the container rotated continuously in front of the radiation source for even exposure. The animals were then returned to their cages, and food and water were provided.
(§2) Blood and Tissue Collection after WBI. Rats exposed to 10 Gy WBI were treated with 20 nmol/rat human ghrelin once a day for 6 days starting at 24 h after radiation. […]
Gut Permeability. Small intestinal mucosal barrier function was assessed by using the ex-vivo isolated everted ileal sac as originally described by Wattanasirichaigoon et al. in 1999 [26] and used by others. […] The length and the diameter of the gut sac were then measured. […] Fluorescence measurements were made with a CYTOFLUOR 2 fluorescence plate reader (PerSeptive Biosystems, Framingham, Mass.) at an excitation wavelength of 480 nm and an emission wavelength of 520 nm. Gut permeability was expressed as the mucosal-to-serosal clearance of FD4 as described in detail by Wattanasirichaigoon et al.. […]

[1] = test system: intestinal crypt apoptosis; assay: Intestinal TUNEL staining after WBI; assay type: in vivo, rat; settings: jejunum, Day 7 after 10 Gy WBI; vehicle increased by 638% from sham
Protocol: as §1
Blood and Tissue Collection after WBI. Rats exposed to 10 Gy WBI were treated with 20 nmol/rat human ghrelin once a day for 6 days starting at 24 h after radiation. At the 7th day, rats were euthanized, and blood, liver and the small intestine were removed under sterile conditions. The blood was allowed to clot and following centrifugation, the serum was transferred into pyrogenic free sterile tubes, and stored at −80° C. until further analysis. […]
TUNEL staining. The presence of apoptotic cells in the gut sections was assessed at the 7th day following WBI using a terminal deoxynucleotide transferase dUTP nick-end labeling (TUNEL) staining kit (Roche Diagnostics, Indianapolis, Ind.). […] TUNEL-positive cells in crypt were counted in 10 fields/section under a fluorescence microscope (200×), and the number of cells/crypt are shown.

Liver 16S rRNA = assay: Bacterial translocation, liver 16S rRNA real time PCR; assay type: in vivo; settings: Day 7 after 10 Gy WBI; 20 nmol/rat for 6 days from 24 h
Protocol: as §1, §2
DNA isolation and total bacteria quantification. […] Bacterial quantification was performed using 16S rRNA gene-targeted primer, forward: 5′-AAC GCG AAG AAC CTT AC-3′ (SEQ ID NO:2) and reverse: 5′-CGG TGT GTA CAA GAC CC-3′ (SEQ ID NO:3). […] The PCR conditions for total bacterial quantification were 95° C. for 1 min and 40 cycles of 95° C. for 20 sec and 60° C. for 1 min. […] Serially diluted genomic DNA of bacterial isolates was used as real time PCR control for bacterial quantification. A standard curve was generated from the bacterial DNA control and we consistently detected between 100 ng to 0.1 pg E. coli DNA. Bacterial counts were expressed as ng/mg liver tissue.

Substance: ghrelin (GSS(Octanoyl)FLSPEHQRVQQRKESKKPPAKLQPR; listed as Homo sapiens) [human ghrelin]
- gut permeability, reduction from Vehicle (rat ileum): 38%
- apoptotic (TUNEL positive) cells/crypt, reduction [1]: 62%
- liver 16S rRNA gene (bacterial counts), reduction from Vehicle (Liver 16S rRNA): 61%
